Measured values as given in patent publication US20190160030A1, “CARBOXYLIC ACIDS FOR EARLY CHILDHOOD APPLICATION” (PROPONENT BIOTECH GMBH, priority 2016, published 2019).

What was measured:
[1] = tested on: Nickel allergen contact hypersensitivity; test: Contact hypersensitivity to Nickel allergen, topical propionate solution, clinical score of skin lesion; format: in vivo, human; details: topical propionate solution subsequent to exposure to Nickel; worded as 'can be'
Excerpt: In this regard, human volunteers can be topically administered a propionate solution subsequent to exposure to a known allergen (e. g. Nickel); see Example 2. Symptoms of dermatitis and/or eczema can be observed, i.e. an allergic reaction. […] Accordingly, the compositions and methods of the invention as described herein in the various embodiments or aspects are, inter alia, effective following contact hypersensitivity to nickel. In addition, compositions and methods of the invention are effective in improving skin repair following an abrasion. Overall, treatment of skin with a solution containing propionate is effective at dampening skin diseases such as dermatitis and/or eczema and reducing redness of the skin, skin lesions, wrinkles, impurities and/or irregularities of the skin by improving the barrier function of the skin. […] The composition of the invention as described herein in the various embodiments or aspects can, inter alia, be applied topically and is relevant for the healthcare and cosmetics industry.
Allergic hypersensitivity can be induced through contact sensitization with Nickel allergen over a 12 hour time period. […] Clinical score of skin lesion can be determined by using protocols known in the art.

[2] = tested on: BALBC/J neonates sensitized and intranasally challenged with house dust mite (HDM); test: Lung analysis after intranasal HDM challenge in the same model: BAL cell counts, PAS mucus staining; format: in vivo, mouse; details: topical 5 mg sodium propionate vs vehicle, n=5 mice per group
Description: A) Airway eosinophil counts and B) airway neutrophils counts were determined in cytospins from bronchoalveolar lavage fluid collected at 72 hours after the last intranasal challenge.
C) Mucus production in the lung was quantified as the frequency of fully periodic acid-Schiff (PAS) stained cells in representative images of small and medium airways from PAS stained paraffin embedded lung tissue sections (4 μM). n=5 mice per group.
(§1) First generation BALBC/J (Charles River) neonates were topically treated on dorsal skin with 5 mg sodium propionate (50 μl of a 100 mg/ml Sodium propionate solution; Sodium propionate (Sigma Aldrich; catalogue number P5436) was dissolved in 0.9% NaCl and sterile filtered) or vehicle control (0.9% NaCl; Laboratorium G. Bichsel AG; catalogue number 1000096) on day 4 and 6 after birth. Ten days post birth epicutaneous sensitization with 15 μg house dust mite (HDM) (Greer Laboratories Inc.; catalogue number B84) was started. […]
Mouse tracheas were canulated and bronchoalveolar lavage (BAL) was performed with 500 μl PBS 0.2% BSA solution. Total BAL cell counts were determined using a Coulter Counter, and differential cell counts were determined on cytospin preparations of the BAL fluid. […]

[3] = tested on: BALBC/J neonates epicutaneously sensitized with house dust mite (HDM); test: Neonatal topical treatment in the epicutaneous HDM atopic dermatitis model: skin inflammatory score, TEWL, skin histology; format: in vivo, mouse
Description: A) Skin inflammatory scoring (0—Normal; 1—Mild inflammation, 2—Moderate inflammation; 3—Marked inflammation; 4—Severe inflammation; 5—Very severe inflammation) was performed (blinded for the experimental conditions) on 8-10 representative images of haematoxylin and eosin stained paraffin embedded skin tissue sections (4 μM).
B) Transepidermal water loss (TEWL) measurement was performed 24 hours after the end of the third epicutaneous HDM sensitization round. Three measurements were taken per mouse. n=5 mice per group.
Skin tissue from the sensitized area was fixed in formalin, embedded in paraffin and 4 μM tissue sections were stained with haematoxylin and eosin. Representative images from vehicle treated controls (left) or sodium propionate treated mice (right) are shown at a 10× magnification. Inserts are shown at a 20× magnification.
as §1, with “started. Epicutaneous sensitization was performed by application of gauze (Dermaplast; catalogue number 214 010) soaked in 15 μg HDM on the dorsal skin of the neonate, which was secured by a bioclusive dressing (Systagenix; catalogue number 2463) and covered with adhesive tape (Mölnlycke Health Care; catalogue number 310500) to prevent removal of the gauze and consequently HDM ingestion. The sensitization was performed for three consecutive weeks, each week consisting of five consecutive days of sensitization, with a change of the gauze on day 3 and removal of the gauze on day 5, followed by a 2 day recovery period.” for “started.”

SMILES: CCC(=O)[O-].[Na+] [propionate, Sodium propionate]
- clinical score (symptoms of dermatitis and/or eczema) [1]: significantly reduced
- allergic airway inflammation (airway eosinophil and neutrophil counts) ([2]; BAL fluid cytospins 72 hours after last intranasal challenge): protects against
- mucus production in the lung (frequency of PAS stained cells) ([2]; PAS stained lung sections, small and medium airways): protects against
- allergic dermatitis skin inflammation ([3]; topical 5 mg sodium propionate vs vehicle (0.9% NaCl), skin inflammatory scoring 0-5 on H&E skin sections, n=5 mice per group): protects against
- epidermal thickening ([3]; topical 5 mg sodium propionate vs vehicle, H&E stained skin sections from sensitized area): protects against
- disruption of skin barrier (transepidermal water loss, TEWL) ([3]; topical 5 mg sodium propionate vs vehicle, TEWL 24 hours after end of third epicutaneous HDM sensitization round, n=5 mice per group): protects against
